Assays:
Settings in all cases: 48 h
SEM cells [1] = test: AUC of viability dose-response curve (% viability x log10 dose units); higher = less sensitive
Procedure, shortened: (§1)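 Seeding of medium-adapted leukemia cells was at 500 or 1000 cells/well in 1536-well plates, followed by 48 h at 37°C with library compounds in DMSO at 11 threefold doses from 47 μM to 0.79 nM. CellTiter-Glo One luminescence was normalised per plate to DMSO and cell-free wells and fitted as a four-parameter log-logistic function of log10 dose. Area under the curve was integrated by trapezoidal rule, with curves exceeding full viability scaled and curves failing quality control removed.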

P12-Ichikawa [2] = test: cell viability relative to DMSO control; higher = less cytotoxic
Procedure, shortened: (§2)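 Leukemia cells (NOMO1 or SEM, 500 cells/well; P12-Ichikawa, 1000 cells/well) were seeded in 5 μl in 1536-well plates after at least four passages of adaptation to each medium. They received library compounds in DMSO by pin dosing, 11 threefold points from 47 μM to 0.79 nM. Luminescence with CellTiter-Glo One was read after 48 h at 37°C. Viability is stated per plate relative to DMSO wells, with cell-free wells as background.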

NOMO1 [3] = test: as above
Procedure, shortened: as §2

SEM cells [4] = test: as above
Procedure, shortened: as §2

P12-Ichikawa [5] = test: AUC of viability dose-response curve (% viability x log10 dose units); higher = less sensitive
Procedure, shortened: as §1

NOMO1 [6] = test: as above
Procedure, shortened: as §1

COC[C@H]1OC(=O)C2=COC3=C2[C@@]1(C)\C4=C(C5CCC(=O)[C@@]5(C)C[C@H]4OC(C)=O)/C3=O (some centres undefined)
SEM cells [1]
Settings	AUC of viability dose-response curve
HPLM + 10% dialyzed FBS	397
RPMI 5 mM glucose + 10% FBS	432
RPMI 5 mM glucose + 10% dialyzed FBS	356

cell viability [%]
Settings	NOMO1 [3]	P12-Ichikawa [2]	SEM cells [4]
HPLM + 10% dialyzed FBS, 0.000781 µM	84.5	93.1	72.1
HPLM + 10% dialyzed FBS, 0.00234 µM	111	98.8	84.9
HPLM + 10% dialyzed FBS, 0.00702 µM	107	104	96.8
HPLM + 10% dialyzed FBS, 0.0211 µM	36.5	11.9	17.5
HPLM + 10% dialyzed FBS, 0.0632 µM	111	108	99.5
HPLM + 10% dialyzed FBS, 0.19 µM	114	113	93
HPLM + 10% dialyzed FBS, 0.569 µM	104	107	93.6
HPLM + 10% dialyzed FBS, 1.71 µM	114	107	95.6
HPLM + 10% dialyzed FBS, 5.12 µM	108	110	85.6
HPLM + 10% dialyzed FBS, 15.4 µM	95	99.1	82
HPLM + 10% dialyzed FBS, 46.1 µM	102	101	95.3
RPMI 5 mM glucose + 10% FBS, 0.000781 µM	90.1	83.8	90.8
RPMI 5 mM glucose + 10% FBS, 0.00234 µM	92	99.7	107
RPMI 5 mM glucose + 10% FBS, 0.00702 µM	92.2	98.7	101
RPMI 5 mM glucose + 10% FBS, 0.0211 µM	19.6	12.2	14.7
RPMI 5 mM glucose + 10% FBS, 0.0632 µM	98.7	98.1	109
RPMI 5 mM glucose + 10% FBS, 0.19 µM	98.3	93.6	102
RPMI 5 mM glucose + 10% FBS, 0.569 µM	100	97.3	107
RPMI 5 mM glucose + 10% FBS, 1.71 µM	91.8	101	111
RPMI 5 mM glucose + 10% FBS, 5.12 µM	93.6	94.3	81.5
RPMI 5 mM glucose + 10% FBS, 15.4 µM	91.8	97	92.2
RPMI 5 mM glucose + 10% FBS, 46.1 µM	107	82	80.3
RPMI 5 mM glucose + 10% dialyzed FBS, 0.000781 µM	82	85.8	89.2
RPMI 5 mM glucose + 10% dialyzed FBS, 0.00234 µM	85.2	90	84.6
RPMI 5 mM glucose + 10% dialyzed FBS, 0.00702 µM	95.7	97.6	88.9
RPMI 5 mM glucose + 10% dialyzed FBS, 0.0211 µM	47.2	32.6	16.4
RPMI 5 mM glucose + 10% dialyzed FBS, 0.0632 µM	93.3	99.8	88.6
RPMI 5 mM glucose + 10% dialyzed FBS, 0.19 µM	94.1	101	85.1
RPMI 5 mM glucose + 10% dialyzed FBS, 0.569 µM	90.9	95.1	94.8
RPMI 5 mM glucose + 10% dialyzed FBS, 1.71 µM	94.6	96.4	82.9
RPMI 5 mM glucose + 10% dialyzed FBS, 5.12 µM	91.5	102	77.1
RPMI 5 mM glucose + 10% dialyzed FBS, 15.4 µM	87.5	93.7	63.5
RPMI 5 mM glucose + 10% dialyzed FBS, 46.1 µM	87.6	77	50.9

O=C(Nc1ccccc1Br)N[C@@H]1CCN(c2ccc(C(F)(F)F)cn2)C1
AUC of viability dose-response curve
Settings	NOMO1 [6]	P12-Ichikawa [5]	SEM cells [1]
HPLM + 10% dialyzed FBS	448	448	469
RPMI 5 mM glucose + 10% FBS	432	443	461
RPMI 5 mM glucose + 10% dialyzed FBS	447	454	469

cell viability [%], SEM cells [4]
Settings	HPLM + 10% dialyzed FBS	RPMI 5 mM glucose + 10% FBS
0.000781 µM	119	117
0.00234 µM	121	94.6
0.00702 µM	136	107
0.0211 µM	131	122
0.0632 µM	127	113
0.19 µM	121	112
0.569 µM	126	105
1.71 µM	133	112
5.12 µM	122	98.9
15.4 µM	120	106
46.1 µM	117	85

CN(Cc1cnc2nc(N)nc(N)c2n1)c1ccc(C(=O)N[C@@H](CCC(=O)O)C(=O)O)cc1
AUC of viability dose-response curve
Settings	NOMO1 [6]	P12-Ichikawa [5]	SEM cells [1]
HPLM + 10% dialyzed FBS	304	245	277
RPMI 5 mM glucose + 10% FBS	390	277	328
RPMI 5 mM glucose + 10% dialyzed FBS	278	258	249

Settings	cell viability [%]
NOMO1 [3], RPMI 5 mM glucose + 10% FBS, 0.000781 µM	116
NOMO1 [3], RPMI 5 mM glucose + 10% FBS, 0.00234 µM	125
NOMO1 [3], RPMI 5 mM glucose + 10% FBS, 0.00702 µM	123
NOMO1 [3], RPMI 5 mM glucose + 10% FBS, 0.0211 µM	135
NOMO1 [3], RPMI 5 mM glucose + 10% FBS, 0.0632 µM	121
NOMO1 [3], RPMI 5 mM glucose + 10% FBS, 0.19 µM	136
NOMO1 [3], RPMI 5 mM glucose + 10% FBS, 0.569 µM	107
NOMO1 [3], RPMI 5 mM glucose + 10% FBS, 1.71 µM	104
NOMO1 [3], RPMI 5 mM glucose + 10% FBS, 5.12 µM	73.1
NOMO1 [3], RPMI 5 mM glucose + 10% FBS, 15.4 µM	26.7
NOMO1 [3], RPMI 5 mM glucose + 10% FBS, 46.1 µM	24.4
SEM cells [4], HPLM + 10% dialyzed FBS, 0.000781 µM	115
SEM cells [4], HPLM + 10% dialyzed FBS, 0.00234 µM	141
SEM cells [4], HPLM + 10% dialyzed FBS, 0.00702 µM	122
SEM cells [4], HPLM + 10% dialyzed FBS, 0.0211 µM	133
SEM cells [4], HPLM + 10% dialyzed FBS, 0.0632 µM	119
SEM cells [4], HPLM + 10% dialyzed FBS, 0.19 µM	53.5
SEM cells [4], HPLM + 10% dialyzed FBS, 0.569 µM	43
SEM cells [4], HPLM + 10% dialyzed FBS, 1.71 µM	37
SEM cells [4], HPLM + 10% dialyzed FBS, 5.12 µM	25.7
SEM cells [4], HPLM + 10% dialyzed FBS, 15.4 µM	18
SEM cells [4], HPLM + 10% dialyzed FBS, 46.1 µM	15.2
